Experimental data as given in ChEMBL document CHEMBL3991601, “The target landscape of clinical kinase drugs” (Science, 2017).
Activity calls are given as the source filed them. For most assays here, no stated cut-off is given here; in the data, actives have a measured Kd and inactives only a lower limit.

Tests used:
[1] = target: T1, Calcium/calmodulin-dependent protein kinase type IV (Homo sapiens, UniProt Q16566)
T1 sequence (Q16566 whole entry): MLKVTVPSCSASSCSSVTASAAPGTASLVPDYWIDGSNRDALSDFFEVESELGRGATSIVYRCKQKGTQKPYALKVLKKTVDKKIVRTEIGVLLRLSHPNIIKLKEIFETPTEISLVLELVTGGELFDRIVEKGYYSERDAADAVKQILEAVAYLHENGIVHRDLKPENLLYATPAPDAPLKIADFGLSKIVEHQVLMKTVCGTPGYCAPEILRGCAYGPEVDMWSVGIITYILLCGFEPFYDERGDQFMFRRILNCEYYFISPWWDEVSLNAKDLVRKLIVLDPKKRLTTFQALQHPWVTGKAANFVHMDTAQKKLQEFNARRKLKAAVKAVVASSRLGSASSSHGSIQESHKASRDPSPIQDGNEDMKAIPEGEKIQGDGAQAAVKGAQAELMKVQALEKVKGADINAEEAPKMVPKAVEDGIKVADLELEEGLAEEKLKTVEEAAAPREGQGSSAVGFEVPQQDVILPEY

dCTP pyrophosphatase 1 = target: T2, dCTP pyrophosphatase 1 (Homo sapiens, UniProt Q9H773)
T2 sequence (Q9H773 whole entry): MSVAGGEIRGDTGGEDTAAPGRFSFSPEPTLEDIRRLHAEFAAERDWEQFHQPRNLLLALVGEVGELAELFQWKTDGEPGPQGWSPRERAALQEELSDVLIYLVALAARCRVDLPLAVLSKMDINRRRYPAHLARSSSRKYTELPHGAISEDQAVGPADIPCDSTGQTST

[2] = target: T3, Bifunctional phosphoribosylaminoimidazole carboxylase/phosphoribosylaminoimidazole succinocarboxamide synthetase (Homo sapiens, UniProt P22234)
T3 sequence (P22234 whole entry): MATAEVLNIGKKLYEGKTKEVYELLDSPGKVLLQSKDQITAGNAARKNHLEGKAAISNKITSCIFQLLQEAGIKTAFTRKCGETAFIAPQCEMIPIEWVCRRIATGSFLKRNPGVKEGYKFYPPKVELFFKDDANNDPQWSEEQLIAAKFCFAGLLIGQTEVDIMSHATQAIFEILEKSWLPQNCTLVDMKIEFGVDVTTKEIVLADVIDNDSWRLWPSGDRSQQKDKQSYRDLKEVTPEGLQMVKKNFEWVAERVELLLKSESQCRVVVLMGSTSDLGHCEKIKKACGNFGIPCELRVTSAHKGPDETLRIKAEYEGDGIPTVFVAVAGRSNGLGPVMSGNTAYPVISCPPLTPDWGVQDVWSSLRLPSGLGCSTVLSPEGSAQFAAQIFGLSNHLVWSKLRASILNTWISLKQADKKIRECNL

Ephrin type-B receptor 4 = target: T4, Ephrin type-B receptor 4 (Homo sapiens, UniProt P54760)
T4 sequence (P54760 whole entry): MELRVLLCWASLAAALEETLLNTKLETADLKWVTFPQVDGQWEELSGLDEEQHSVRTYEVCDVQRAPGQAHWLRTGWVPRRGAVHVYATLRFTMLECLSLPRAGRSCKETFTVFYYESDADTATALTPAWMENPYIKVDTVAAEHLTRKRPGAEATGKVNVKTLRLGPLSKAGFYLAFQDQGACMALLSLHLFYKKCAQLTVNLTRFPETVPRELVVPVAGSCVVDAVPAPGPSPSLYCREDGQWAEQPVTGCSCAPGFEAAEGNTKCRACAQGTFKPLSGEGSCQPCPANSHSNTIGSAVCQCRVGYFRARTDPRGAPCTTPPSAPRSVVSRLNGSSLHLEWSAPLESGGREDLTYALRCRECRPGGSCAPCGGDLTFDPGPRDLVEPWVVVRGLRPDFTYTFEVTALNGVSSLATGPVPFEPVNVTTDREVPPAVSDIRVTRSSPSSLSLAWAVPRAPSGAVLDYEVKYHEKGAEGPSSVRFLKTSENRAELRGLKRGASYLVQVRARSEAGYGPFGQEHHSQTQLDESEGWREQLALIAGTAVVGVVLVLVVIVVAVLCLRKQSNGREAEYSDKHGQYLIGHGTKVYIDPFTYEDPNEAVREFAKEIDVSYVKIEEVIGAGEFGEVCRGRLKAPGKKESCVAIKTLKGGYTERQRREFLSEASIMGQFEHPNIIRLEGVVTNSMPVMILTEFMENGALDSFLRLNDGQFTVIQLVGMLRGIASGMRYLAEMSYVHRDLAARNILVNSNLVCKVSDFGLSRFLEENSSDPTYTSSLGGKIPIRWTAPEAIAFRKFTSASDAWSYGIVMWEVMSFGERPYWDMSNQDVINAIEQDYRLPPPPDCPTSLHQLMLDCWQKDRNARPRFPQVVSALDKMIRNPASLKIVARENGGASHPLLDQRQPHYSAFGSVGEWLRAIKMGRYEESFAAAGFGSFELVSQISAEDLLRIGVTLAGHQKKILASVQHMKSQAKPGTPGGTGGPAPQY

[3] = target: T5, General transcription and DNA repair factor IIH helicase subunit XPD (Homo sapiens, UniProt P18074); settings: read-out: Kd apparent; k-562, colo 205, sk-n-be(2) and mv-4-11
T5 sequence (P18074 whole entry): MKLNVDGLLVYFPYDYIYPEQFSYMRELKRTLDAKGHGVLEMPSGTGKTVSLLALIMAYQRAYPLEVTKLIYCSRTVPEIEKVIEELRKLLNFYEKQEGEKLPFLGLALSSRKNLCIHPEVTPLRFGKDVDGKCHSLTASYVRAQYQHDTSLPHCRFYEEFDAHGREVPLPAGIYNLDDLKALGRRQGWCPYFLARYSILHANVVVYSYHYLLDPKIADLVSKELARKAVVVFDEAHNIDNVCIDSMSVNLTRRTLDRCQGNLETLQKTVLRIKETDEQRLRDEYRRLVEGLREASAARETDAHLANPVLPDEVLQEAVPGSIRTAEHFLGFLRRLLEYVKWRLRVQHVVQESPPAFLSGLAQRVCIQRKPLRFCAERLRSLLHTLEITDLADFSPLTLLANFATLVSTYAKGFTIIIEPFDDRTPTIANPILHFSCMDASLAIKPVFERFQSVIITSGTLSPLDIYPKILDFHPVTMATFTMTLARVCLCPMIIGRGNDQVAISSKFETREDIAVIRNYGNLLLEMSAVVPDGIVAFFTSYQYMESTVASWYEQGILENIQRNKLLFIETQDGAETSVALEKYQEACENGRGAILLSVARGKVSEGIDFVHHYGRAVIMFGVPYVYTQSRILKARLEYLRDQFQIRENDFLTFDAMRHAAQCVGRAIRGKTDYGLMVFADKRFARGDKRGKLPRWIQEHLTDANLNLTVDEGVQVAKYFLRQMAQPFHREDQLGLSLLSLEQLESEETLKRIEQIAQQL

| Compound | Kd [1] | Kd (dCTP pyrophosphatase 1) | Kd [2] | Kd (Ephrin type-B receptor 4) | Kd [3] |
| --- | --- | --- | --- | --- | --- |
| NC(=O)c1ccc(N(C(N)=O)c2c(F)cccc2F)nc1-c1ccc(F)cc1F [VX-702] | > 30 µM (inactive) | > 30 µM (inactive) | > 30 µM (inactive) | > 30 µM (inactive) | > 30 µM (inactive) |
| COc1cc2ncnc(Nc3ccc(F)c(Cl)c3)c2cc1NC(=O)/C=C/CN1CCCCC1 [DACOMITINIB ANHYDROUS] | > 30 µM (inactive) | > 30 µM (inactive) | > 30 µM (inactive) | > 30 µM (inactive) | > 30 µM (inactive) |
| COc1cc(F)c(F)c(Nc2ccc(I)cc2F)c1NS(=O)(=O)C1(C[C@H](O)CO)CC1 [REFAMETINIB] | > 30 µM (inactive) | > 30 µM (inactive) | > 30 µM (inactive) | > 30 µM (inactive) | > 30 µM (inactive) |
| O[C@H]1CC[C@H](Nc2ncc3nc(Nc4c(F)cc(F)cc4F)n([C@H]4CCOC4)c3n2)CC1 [TANZISERTIB] | > 30 µM (inactive) | > 30 µM (inactive) | > 30 µM (inactive) | > 30 µM (inactive) | > 30 µM (inactive) |
| CCc1nc(C(N)=O)c(Nc2ccc(N3CCC(N4CCN(C)CC4)CC3)c(OC)c2)nc1NC1CCOCC1 [GILTERITINIB] | 0.421 µM (active) | > 30 µM (inactive) | 5.48 µM | > 30 µM (inactive) | > 30 µM (inactive) |
| C#Cc1cccc(Nc2ncnc3cc4c(cc23)OCCOCCOCCO4)c1 [ICOTINIB] | > 30 µM (inactive) | > 30 µM (inactive) | > 30 µM (inactive) | > 30 µM (inactive) | > 30 µM (inactive) |
| COc1cc2ncnc(Nc3ccc(O)cc3)c2cc1OC [WHI-P131] | > 30 µM (inactive) | > 30 µM (inactive) | > 30 µM (inactive) | > 30 µM (inactive) | > 30 µM (inactive) |
| Cn1c(=O)n(-c2ccc(C(C)(C)C#N)cc2)c2c3cc(-c4cnc5ccccc5c4)ccc3ncc21 [DACTOLISIB] | > 30 µM (inactive) | > 30 µM (inactive) | > 30 µM (inactive) | > 30 µM (inactive) | > 30 µM (inactive) |
| COc1ccc2c(OCc3nnc4ccc(-c5ccccc5)nn34)ccnc2c1 [AMG-208] | > 30 µM (inactive) | > 30 µM (inactive) | > 30 µM (inactive) | > 30 µM (inactive) | > 30 µM (inactive) |
| O=S(=O)(c1cccc2cnccc12)N1CCCNCC1 [FASUDIL] | > 30 µM (inactive) | > 30 µM (inactive) | > 30 µM (inactive) | > 30 µM (inactive) | > 30 µM (inactive) |
| CCN(CCCOc1ccc2c(Nc3cc(CC(=O)Nc4cccc(F)c4)n[nH]3)ncnc2c1)CCOP(=O)(O)O [BARASERTIB] | > 30 µM (inactive) | > 30 µM (inactive) | > 30 µM (inactive) | > 30 µM (inactive) | > 30 µM (inactive) |
| CCN1CCN(Cc2ccc(Nc3ncc(F)c(-c4cc(F)c5nc(C)n(C(C)C)c5c4)n3)nc2)CC1 [ABEMACICLIB] | > 30 µM (inactive) | > 30 µM (inactive) | > 30 µM (inactive) | > 30 µM (inactive) | > 30 µM (inactive) |
| CC1(COc2ccc3c(c2)ncn3-c2ccc3cccc(N4CCC(N)CC4)c3n2)COC1 [CRENOLANIB] | > 30 µM (inactive) | > 30 µM (inactive) | > 30 µM (inactive) | > 30 µM (inactive) | > 30 µM (inactive) |
| COc1cccc2cc(-c3nc([C@H]4CC[C@H](C(=O)O)CC4)n4ncnc(N)c34)[nH]c12 [OSI-027] | > 30 µM (inactive) | > 30 µM (inactive) | > 30 µM (inactive) | > 30 µM (inactive) | > 30 µM (inactive) |
| O=C(NC[C@H](O)CO)c1ccncc1Nc1ccc(I)cc1F [PIMASERTIB] | > 30 µM (inactive) | > 30 µM (inactive) | > 30 µM (inactive) | > 30 µM (inactive) | > 30 µM (inactive) |
| CN1CCN(c2nc(C3=C(c4c[nH]c5ccccc45)C(=O)NC3=O)c3ccccc3n2)CC1 [SOTRASTAURIN] | > 30 µM (inactive) | > 30 µM (inactive) | > 30 µM (inactive) | > 30 µM (inactive) | > 30 µM (inactive) |
| c1cc(OCCN2CCCCC2)cc(-c2n[nH]c3ccc(-c4nc[nH]n4)cc23)c1 [CC-401] | > 30 µM (inactive) | > 30 µM (inactive) | > 30 µM (inactive) | > 30 µM (inactive) | > 30 µM (inactive) |
| O=c1[nH]c([C@@H]2CCCN2)nc2c1oc1ccc(Cl)cc12 | > 30 µM (inactive) | > 30 µM (inactive) | > 30 µM (inactive) | > 30 µM (inactive) | > 30 µM (inactive) |
| COc1ccc(-c2ccc3ncc4c(c3c2)n(-c2ccc(N3CCNCC3)c(C(F)(F)F)c2)c(=O)n4C)cn1 [BGT-226 FREE BASE] | > 30 µM (inactive) | > 30 µM (inactive) | > 30 µM (inactive) | > 30 µM (inactive) | > 30 µM (inactive) |
| O=S(=O)(c1cccc2c(O)nccc12)N1CCCNCC1 [HYDROXYFASUDIL] | > 30 µM (inactive) | > 30 µM (inactive) | > 30 µM (inactive) | > 30 µM (inactive) | > 30 µM (inactive) |
| CC(C)CC(=O)Nc1[nH]nc2c1CN(C(=O)C1CCN(C)CC1)C2(C)C [PHA-793887] | > 30 µM (inactive) | > 30 µM (inactive) | > 30 µM (inactive) | > 30 µM (inactive) | 0.01 µM (active) |
| C[C@]1(O)C[C@@H](c2nc(-c3ccc4ccc(-c5ccccc5)nc4c3)c3c(N)nccn32)C1 [LINSITINIB] | > 30 µM (inactive) | > 30 µM (inactive) | > 30 µM (inactive) | > 30 µM (inactive) | > 30 µM (inactive) |
